# Experimental data from patent publication US9096539B2, “Substituted 4,5-dihydro-2H-benzo[e]indazole-9-carboxylates for the treatment of diabetes and related disorders” (Council of Scientific & Industrial Research, priority 2012, dated 2015).
# Read-outs that look alike come from different tables or passages of the source.
# Tests used:
# [1] = molecular target: T1, human recombinant PTP1B enzyme (Homo sapiens, UniProt P18031); test: Protein tyrosine phosphatase-1B assay (colorimetric kit BML-AK 822); type: biochemical; details: read-out: % Inhibition (PTP-1B)
# T1 construct: purchased Enzo Life Sciences, USA BML-AK 822
# T1 sequence (P18031 1-322 limits assumed): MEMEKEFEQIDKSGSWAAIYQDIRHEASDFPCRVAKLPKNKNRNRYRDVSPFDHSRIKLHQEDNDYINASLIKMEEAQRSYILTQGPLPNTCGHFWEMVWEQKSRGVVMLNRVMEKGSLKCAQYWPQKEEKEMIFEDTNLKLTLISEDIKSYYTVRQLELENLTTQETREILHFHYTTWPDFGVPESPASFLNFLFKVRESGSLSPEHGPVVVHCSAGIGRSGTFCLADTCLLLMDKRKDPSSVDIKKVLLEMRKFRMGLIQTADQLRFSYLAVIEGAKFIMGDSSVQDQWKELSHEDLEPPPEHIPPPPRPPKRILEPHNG
# Description: Assay was done according to the Kit manufacturers protocol, in brief the reaction was carried out in 96 well flat bottomed microtiter plate by the addition of assay buffer, solution of test compounds and diluted PTP1B enzyme. Enzyme reaction was initiated by addition of 50 μl of warmed 2× substrate then incubated the plate at 30° C. for 30 min. After incubation for 30 min. Reaction was terminated by addition of 25 μl of biomol red reagent and mixed thoroughly by repeated pipetting. […] Volumes and dilution of other component were accordingly as instructed in the manual provided in the kit. PTP1B phosphatase acting on the phosphopeptide substrate and release phosphate. The detection of free phosphate released is based on classic Malachite green assay. After adding biomol red to reaction wells after 30 minutes of incubation as described earlier the plate was incubated for another 20 min to develop the colour. Absorbance was recorded at 620 nm. on a microplate reader.
# [2] = Table 5, evaluated at 10 μM concentration
SMILES,melting point [°C],"inhibition at 10 µM [1, 2] [%]",inhibition at 10 µM [1] [%]
"COC(=O)c1c(SC)cc(-c2ccc(F)cc2)c2c1-c1cn(-c3ccccc3)nc1CC2 [compound 8, methyl 6-(4-fluorophenyl)-8-(methylthio)-2-phenyl-4,5-dihydro-2H-benzo[e]indazole-9-carboxylate]",182 to 184,14.6,
"COC(=O)c1c(SC)cc(-c2ccc3ccc4cccc5ccc2c3c45)c2c1-c1cn(-c3ccccc3)nc1CC2 [compound 9, methyl 8-(methylthio)-2-phenyl-6-(pyren-1-yl)-4,5-dihydro-2H-benzo[e]indazole-9-carboxylate]",174 to 176,,10.7
"COC(=O)c1c(S(C)(=O)=O)cc(-c2ccc(F)cc2)c2c1-c1cn(-c3ccccc3)nc1CC2 [compound 10, methyl 6-(4-fluorophenyl)-8-(methylsulfonyl)-2-phenyl-4,5-dihydro-2H-benzo[e]indazole-9-carboxylate]",245 to 247,1.52,

# Continued, in another order:
melting point [°C],"inhibition at 10 µM [1, 2] [%]",SMILES,inhibition at 10 µM [1] [%]
204 to 206,18.8,"COC(=O)c1c(S(C)(=O)=O)cc(-c2cccc3ccccc23)c2c1-c1cn(-c3ccccc3)nc1CC2 [compound 11, methyl 8-(methylsulfonyl)-6-(naphthalen-1-yl)-2-phenyl-4,5-dihydro-2H-benzo[e]indazole-9-carboxylate]",
228 to 230,26.4,"COC(=O)c1c(S(C)(=O)=O)cc(-c2ccc(C)cc2)c2c1-c1cn(-c3ccccc3)nc1CC2 [compound 12, methyl 8-(methylsulfonyl)-2-phenyl-6-(p-tolyl)-4,5-dihydro-2H-benzo[e]indazole-9-carboxylate]",
